Decomposition on storage, IC50 and ED50 data for 11 compounds are collected here from EP0119450A1, “Preparation of aminopyrazolines and intermediates used therein” (THE WELLCOME FOUNDATION LIMITED, priority 1983, dated 1984).

The nature of data set [1]: Storage stability at normal room temperature in sealed containers, analysed by T.l.c. It counts as physicochemical. Particulars: freshly prepared samples, T.l.c. at regular intervals. The text has this: Freshly prepared samples of the compound of Example 29/30B and the compound 2B (the latter also being disclosed in European Specification 55 418) were stored separately at normal room temperature in sealed containers and analysed at regular intervals by T.l.c.

The target of another data set is Cyclooxygenase. Kind of data set: Enzyme assay, inhibition of cyclooxygenase (method based on Borgeat et al). It counts as biochemical.
Another data set deals with Lipoxygenase. Put plainly: Enzyme assay, inhibition of lipoxygenase (method based on Borgeat et al). It is filed as biochemical.
For another data set, the system named is Prostaglandin E2. Kind of data set: Prostaglandin synthesis in carrageenin sponge exudates. It is filed as in vivo. Particulars: Rattus norvegicus, po; male rats, carrageenin sponge exudate collected at 24 hours; read-out: ED50 Prostaglandin Production (rat). The procedure: (§1) The compound of Example 29/3UB was subjected to the following tests. Results are given in Table II as ED50 mg/kg upon oral administration.
(§2) Inflammatory exudates were collected 24 hours after the subcutaneous implantation in male rats (180-220g) of sterile polyester sponges impregnated with 2% carrageenin. Prostaglandin E2 concentrations in sponge exudates were measured by bioassay and total leucocyte numbers were estimated using counting chambers and phase contrast microscopy. Drugs were administered orally in aqueous solution to groups of five animals at the time of sponge implantation, 5-8 hours later and 3 hours before sponge removal. Results are expressed as a percentage of control values obtained from similar groups of animals receiving vehicle alone. ED50 values were calculated for active compounds. The full dose-response data for lead compounds were subjected to regression analysis and ED50 values with 95% confidence limits were obtained.

Another data set deals with total leucocyte numbers. Put plainly: Leucocyte accumulation in carrageenin sponge exudates. It counts as in vivo. Particulars: Rattus norvegicus, po, male rats, carrageenin sponge exudate collected at 24 hours. The procedure:
as §1, §2

A further data set relates to female rats. Put plainly: Carrageenin-induced paw oedema. It counts as in vivo. Particulars: Rattus norvegicus, po, swelling measured 1-4 hours after carrageenin. The protocol:
as §1
Oedema was induced by the sub-plantar injection of 2% carrageenin (0.1 ml) in the hind paws of female rats (100-130g). Swelling was measured 1-4 hours following carrageenin injection using a micrometer gauge. Drugs in aqueous solution were administered orally to groups of five rats at the time of carrageenin injection. Mean swelling was expressed as a percentage of control values obtained from similar groups of animals receiving vehicle alone.
(In general: Carrageenan injected into the paw causes an acute inflammation.)

The next data set relates to female mice. Kind of data set: Phenylbenzoquinone (PBQ) induced writhing. It is filed as in vivo. Conditions: Mus musculus, po, p.o. 1 hour before PBQ 2.5 mg/kg i.p. The protocol: as §1
Writhing was induced in groups of 5 female mice (20-25g) following the intraperitoneal injection of phenylbenzoquinone (PBQ; 2.5 mg/kg). Anti- nociceptive effects of drugs were assessed by observing the reduction in writhing responses 10-12½ min after PBQ injection. Drugs were administered orally in aqueous solution 1 hour before PBQ injection and drug effects were expressed as a percentage of control values obtained from animals receiving vehicle alone.
(In writhing tests, fewer writhes than in controls are read as antinociception.)

The IC50 is the midpoint of a concentration-inhibition curve. The low end stands for greater potency in that assay, the high end for weaker potency in that assay. In general, ED50 refers to the dose that gives a 50% effect, or the effect in half of the subjects.

Take `CC(=O)N(C)C1=NN(c2cccc(C(F)(F)F)c2)CC1` [29&30B, N-methyl-N-[1-(3-trifluoromethylphenyl)-2-pyrazolin-3-yl] acetamide]: in data set [1], the decomposition on storage result is given as “no significant decomposition, 2 years from the outset of the Experiment”. The half-inhibitory concentration (IC50) against Cyclooxygenase and on Lipoxygenase was 1 µM each time. In addition, the ED50 was determined as 35 mg/kg in the data set with Prostaglandin E2, 57 mg/kg with total leucocyte numbers, 15 mg/kg in the data set with female rats and 45 mg/kg in the data set with female mice.
Take `CNC1=NN(c2cccc(C(F)(F)F)c2)CC1` [Example 2B, 3-methylamino-1-(3-trifluoromethylphenyl)-2-pyrazoline]: the decomposition on storage entry in data set [1] is on record as “significant decomposition after six months”.
For `C=CCN(C=O)C1=NN(c2cccc(C(F)(F)F)c2)CC1` [Example 3A, N-(2-propenyl)-N-[1-(3-trifluoromethylphenyl)-2-pyrazolin-3-yl]formamide], the results for the half-inhibitory concentration (IC50) on Cyclooxygenase and on Lipoxygenase were 5 µM and 2 µM, respectively.
In the same order, the values of `C#CCN(C=O)C1=NN(c2cccc(C(F)(F)F)c2)CC1` [Example 4A, N-(2-propynyl)-N-[1-(3-trifluoromethylphenyl)-2-pyrazolin-3-yl]formamide] are 3 µM and 0.5 µM.
In the same order, the values of `CCCN(C=O)C1=NN(c2cccc(C(F)(F)F)c2)CC1` [Example 5A, N-(n-propyl)-N-[1-(3-trifluoromethylphenyl)-2-pyrazolin-3-yl]-formamide] are 10 µM and 1 µM.
In the same order, the values of `O=CN(CC1CC1)C1=NN(c2cccc(C(F)(F)F)c2)CC1` [Example 8A, N-(cyclopropylmethyl)-N-[1-(3-trifluoromethylphenyl)-2-pyrazolin-3-yl]formamide] are 8 µM and 2 µM.
With `O=CN(CC=Cc1ccccc1)C1=NN(c2cccc(C(F)(F)F)c2)CC1` [Example 9A, N-(cinnamyl)-N-[1-(3-trifluoromethylphenyl)-2-pyrazolin-3-yl]formamide], the IC50 against Cyclooxygenase stood at 2 µM; against Lipoxygenase, 1.5 µM.
On the same counts, the results for `O=CN(Cc1ccc(F)cc1)C1=NN(c2ccc(Br)c(C(F)(F)F)c2)CC1` [Example 18B, N-[1-(4-bromo-3-trifluoromethylphenyl)-2-pyrazolin-3-yl]-N-(4-fluorobenzyl)formamide] are 2 µM and 5 µM.
In the same order, the values of `CCC(=O)N(C)C1=NN(c2cccc(C(F)(F)F)c2)CC1` [Example 32, N-methyl-N-[1-(3-trifluoromethylphenyl)-2-pyrazolin-3-yl]propionamide] are greater than 10 µM and 1 µM.
In the same order, the values of `O=CN(CC=CCCl)C1=NN(c2cccc(C(F)(F)F)c2)CC1` [Example 34] are 10 µM and 3 µM.
In the case of `CC(=O)N(C)C1=NN(c2ccc(Br)c(C(F)(F)F)c2)CC1` [Example 45, N-methyl-N-[1-(4-bromo-3-trifluoromethylphenyl)-2-pyrazolin-3-yl]acetamide], the IC50 against Cyclooxygenase and against Lipoxygenase was 1 µM throughout.
